The conditions of data set [1]: background statement; cited from earlier work.
For data set [2] the following is noted: cited from earlier work.
Data set [3] is described as follows: Solubility in methanol. The class given is physicochemical.
The conditions of data set [4]: comparison value for shinorine; cited from earlier work.
Data set [5] in a line: UV absorbance maximum (λmax). The format is physicochemical. Particulars: for UV maximum: under acidic conditions, HPLC of culture broth. The procedure: Gadusporine A (see FIG. 5A), a yellow-brown solid, UV (50 mM phosphate buffer pH 7) λmax 340 nm, (50 mM acetic acid pH 3) λmax 338 nm. ^1H NMR (700 MHz, D2O) and ^13C NMR (175 MHz, D2O) see Table 3. HR-ESIMS m/z 349.1239 [M+H]^+ (calculated for C13H20N2O9, 349.1247).
Gadusporine A was produced at 20 mg/L. Gadusol was produced by pTMAO-G1 at of 29 mg/L.
Shinorine has been reported to have λmax=330 nm at pH 1.7 and λmax=334 nm at pH 7. […] Gadusporine A has a molar extinction coefficient ε=49,400, as measured in 50 mM phosphate buffer at pH 7.0, which is slightly higher than shinorine (ε=44,000), thus stronger UV absorbance activity.

The nature of data set [6]: Molar extinction coefficient by UV absorbance at 340 nm. Particulars: 50 mM phosphate buffer at pH 7.0, absorbance at 340 nm; in M-1 cm-1 (unit assumed). The format is physicochemical. The procedure: S. coelicolor A(3)2 pTMAO-G3 was cultured as described above at larger scales and 225 mL of S. coelicolor pTMAO-G3 culture broth was dried to ˜20 mL and passed through a C18 solid phase extraction (SPE) column. Gadusol and gadusporines were mostly un-retained, however, washing with water for 1-2 column volumes (CVs) eluted the remaining compounds. The eluent was combined and dried to ˜20 mL, which was applied directly to a 300 mL Bio-Rad AG®-1×8 (acetate form) column. After washing with 2 L of water, 500 mM acetic acid was used to elute gadusol and gadusporines. All fractions containing both gadusol and gadusporines were combined and fractions lacking gadusol but containing gadusporines were combined separately and dried. The gadusol-free fraction was further purified using the preparative HPLC as described previously to give gadusporine A (9.0 mg) (see FIG. 5A) as two different isomers. All NMR experiments were performed on a 700 MHz Bruker NMR Spectrometer with a cryo probe at the Oregon State University (OSU) NMR facility. The molar extinction coefficient of gadusporine A was determined by dissolving 0.6 mg in 50 mM phosphate buffer at pH 7.0 in a 25 mL volumetric flask then measuring UV absorbance at 340 nm.

The values that follow come from patent US11739337B2, “Gadusol derivative production in bacteria” (Oregon State University, priority 2019, dated 2023).

Read-outs that look alike come from different tables or passages of the source.

For `COC1=C(O)CC(O)(CO)C(O)C1=O` (centres unmarked) [Gadusol, gadusol], in data set [1], the antioxidant activity result is given as “antioxidant activity”. Also, the results for the UV absorbance maxima in data set [2] (pH 2.5) and in data set [2] (pH 7.0) were 268 nm and 296 nm, respectively.

Take `COC1=C(NCC(=O)O)C[C@@](O)(CO)C/C1=N\[C@@H](CO)C(=O)O` [Shinorine, shinorine]: the solubility in methanol result in data set [3] is reported as “readily dissolved in methanol”. For the same compound, in data set [4], the “molar extinction coefficient ε” value is 44,000. Further, the λmax in data set [2] (pH 1.7, reported) is 330 nm; in data set [2] (pH 7, reported), 334 nm.

For prasiolin, in data set [2] (background, no pH given), the λmax is on record as 324 nm.

Turning to `COC1=C(NCC(=O)O)C[C@@](O)(CO)[C@@H](O)/C1=N\[C@@H](C)C(=O)O` [gadusporine B, (S)-2-(((5R,6S,E)-3-((carboxymethyl)amino)-5,6-dihydroxy-5-(hydroxymethyl)-2-methoxycyclohex-2-en-1-ylidene)amino)propanoic acid], the entries for the “UV λmax” value in data set [5] (50 mM acetic acid pH 3) and in data set [5] (50 mM phosphate buffer pH 7) were 338 nm and 340 nm, respectively. The compound also had a UV maximum in data set [5] of 338 nm. Also, the solubility in methanol result in data set [3] is “not very soluble in methanol”.

Turning to `C/C=C/NC1=C(OC)C(=NCC(=O)O)CC(O)(CO)C1` (centres unmarked) [palythene], the λmax in data set [2] (background, no pH given) is listed as 360 nm.

Consider `COC1=C(NCC(=O)O)C[C@@](O)(CO)[C@@H](O)/C1=N\[C@@H](CO)C(=O)O` [gadusporine A, (S)-2-(((5R,6S,E)-3-((carboxymethyl)amino)-5,6-dihydroxy-5-(hydroxymethyl)-2-methoxycyclohex-2-en-1-ylidene)amino)-3-hydroxypropanoic acid], for which the “UV λmax” value in data set [5] (50 mM acetic acid pH 3) is 338 nm; in data set [5] (50 mM phosphate buffer pH 7), 340 nm. Further, the λmax in data set [5] (pH 2.0) is 338 nm; in data set [5] (pH 7.0), 340 nm. In data set [5], the UV maximum was 338 nm. In addition, in data set [6], the “molar extinction coefficient ε” value is 49,400.

For `C/C=C\NC1=C(OC)C(=NCC(=O)O)CC(O)(CO)C1` (centres unmarked) [usujirene], in data set [2] (background, no pH given), the λmax is recorded as 357 nm.
